Test results taken from article PMC8587071, “Utilization of Sodium Nitroprusside as an Intestinal Permeation Enhancer for Lipophilic Drug Absorption Improvement in the Rat Proximal Intestine” (Molecules, 2021).

How the values were obtained:
rat duodenum = experiment: in vitro sac permeation study, rat duodenum; conditions: for Papp Ratio (SNP/CTRL): SNP 3 mM pretreatment
Protocol: (§1) Animal experimental protocols (approval codes: P18-30, P19-09, and P20-14) were carried out in accordance with the Ethical Committee of Tokyo University of Pharmacy and Life Sciences. Male Wistar rats (8 weeks old) were obtained from Tokyo Laboratory Animals Science Co., Ltd. (Tokyo, Japan). Permeation studies of lipophilic drugs were carried out using the in vitro sac method, as previously described.
(§2) Based on these concentrations, the apparent permeability coefficients (Papp) of each test compound were calculated according to the following Equation (1):(1) Pappcm/s=dQ/dt×1/C0S where: • dQ/dt—the flux of the test compound in the serosal side, • C0—the initial concentration in the mucosal side, • S—the surface area of the intestinal lumen.

rat ileum = experiment: in vitro sac permeation study, rat ileum; conditions: SNP 3 mM pretreatment
Protocol: (§3) Animal experimental protocols (approval codes: P18-30, P19-09, and P20-14) were carried out in accordance with the Ethical Committee of Tokyo University of Pharmacy and Life Sciences. Male Wistar rats (8 weeks old) were obtained from Tokyo Laboratory Animals Science Co., Ltd. (Tokyo, Japan). Permeation studies of lipophilic drugs were carried out using the in vitro sac method, as previously described. […] The serosal samples were collected at 0, 10, 20, 30, 40, 60, 90, and 120 min after administration, and analyzed using a reversed-phase HPLC system (LC-2000Plus; JASCO Co., Tokyo, Japan) or fluorescence microplate reader to determine the concentration of each test compound [15].
as §2

[1] = in vitro sac permeation study, rat ileum; conditions: male, Wistar, rat, 200 μM test compound
Protocol: as §3, §2

[2] = in vitro sac permeation study, rat jejunum; conditions: male, Wistar, rat, 200 μM test compound
Protocol: as §3, §2

rat jejunum = experiment: in vitro sac permeation study, rat jejunum; conditions: SNP 3 mM pretreatment
Protocol: as §3, §2

[3] = in vitro sac permeation study, rat duodenum; conditions: male, Wistar, rat, 200 μM test compound
Protocol: as §1, §2

[4] = in vitro sac permeation study, rat colon; conditions: male, Wistar, rat, 200 μM test compound
Protocol: as §3, §2

rat colon = experiment: in vitro sac permeation study, rat colon; conditions: SNP 3 mM pretreatment
Protocol: as §3, §2

[5] = Papp SNP, pretreated with SNP 3 mM for 60 min

Row | SMILES | effect on the SNP enhancement of griseofulvin permeability (rat duodenum; DTT 10 mM for 10 min before SNP 3 mM) | effect of pretreatment on flurbiprofen permeation (rat duodenum; SNP 3 mM 60 min, DTT 10 mM 10 min) | effect of pretreatment on griseofulvin permeation (rat duodenum; SNP or SFC 3 mM 60 min, DTT 10 mM 10 min) | Papp Ratio (SNP/CTRL) (rat ileum) | Papp at 120 min, 200 μM ([1]; Papp CTRL, SNP-untreated) [×10⁻⁶ cm/s] | Papp at 120 min, 200 μM [1, 5] [×10⁻⁶ cm/s] | Papp at 120 min, 200 μM ([2]; Papp CTRL, SNP-untreated) [×10⁻⁶ cm/s] | Papp at 120 min, 200 μM [2, 5] [×10⁻⁶ cm/s] | Papp Ratio (SNP/CTRL) (rat jejunum) | Papp at 120 min, 200 μM ([3]; Papp CTRL, SNP-untreated) [×10⁻⁶ cm/s] | Papp at 120 min, 200 μM [3, 5] [×10⁻⁶ cm/s] | Papp Ratio (SNP/CTRL) (rat duodenum) | Papp at 120 min, 200 μM ([4]; Papp CTRL, SNP-untreated) [×10⁻⁶ cm/s] | Papp at 120 min, 200 μM [4, 5] [×10⁻⁶ cm/s] | Papp Ratio (SNP/CTRL) (rat colon) | effect on the SNP enhancement of griseofulvin permeability (rat duodenum; c-PTIO 1 mM co-pre-treated with SNP 3 mM) | effect on the SNP-increased FD-4 permeation (rat duodenum; c-PTIO 1 mM with SNP 3 mM)
1 | O[C@@H](CS)[C@@H](O)CS (racemic) [DTT, dithiothreitol] | visibly disappeared | increased | increased |  |  |  |  |  |  |  |  |  |  |  |  |  | 
2 | CC(C(=O)O)c1ccc(-c2ccccc2)c(F)c1 (centres unmarked) [Flurbiprofen] |  |  |  | 1.17 | 33.9 ± 11.3 | 39.8 ± 17.7 | 26 ± 11.9 | 32.7 ± 12.9 | 1.26 | 5.8 ± 1.7 | 13 ± 2.7 | 2.24 | 28.3 ± 2.5 | 19.4 ± 3.7 | 0.69 |  | 
3 | CC1(C)N([O])C(c2ccc(C(=O)O)cc2)=[N+]([O-])C1(C)C [c-PTIO, Carboxy-PTIO] |  |  |  |  |  |  |  |  |  |  |  |  |  |  |  | inhibited | disappeared

More lines, main results first:

Row | effect on the SNP enhancement of griseofulvin permeability (rat duodenum; DTT 10 mM for 10 min before SNP 3 mM) | effect of pretreatment on flurbiprofen permeation (rat duodenum; SNP 3 mM 60 min, DTT 10 mM 10 min) | effect of pretreatment on griseofulvin permeation (rat duodenum; SNP or SFC 3 mM 60 min, DTT 10 mM 10 min) | Papp Ratio (SNP/CTRL) (rat ileum) | Papp at 120 min, 200 μM ([1]; Papp CTRL, SNP-untreated) [×10⁻⁶ cm/s] | Papp at 120 min, 200 μM [1, 5] [×10⁻⁶ cm/s] | Papp at 120 min, 200 μM ([2]; Papp CTRL, SNP-untreated) [×10⁻⁶ cm/s] | Papp at 120 min, 200 μM [2, 5] [×10⁻⁶ cm/s] | Papp Ratio (SNP/CTRL) (rat jejunum) | Papp at 120 min, 200 μM ([3]; Papp CTRL, SNP-untreated) [×10⁻⁶ cm/s] | Papp at 120 min, 200 μM [3, 5] [×10⁻⁶ cm/s] | Papp Ratio (SNP/CTRL) (rat duodenum) | Papp at 120 min, 200 μM ([4]; Papp CTRL, SNP-untreated) [×10⁻⁶ cm/s] | Papp at 120 min, 200 μM [4, 5] [×10⁻⁶ cm/s] | Papp Ratio (SNP/CTRL) (rat colon) | SMILES | effect on the SNP enhancement of griseofulvin permeability (rat duodenum; c-PTIO 1 mM co-pre-treated with SNP 3 mM) | effect on the SNP-increased FD-4 permeation (rat duodenum; c-PTIO 1 mM with SNP 3 mM)
4 |  |  |  | 0.76 | 24.3 ± 6 | 18.4 ± 4.4 | 42.2 ± 20 | 70.3 ± 19.2 | 1.67 | 8 ± 4.2 | 19.6 ± 4.1 | 2.45 | 39.6 ± 21.4 | 31.7 ± 11.1 | 0.80 | COC1=CC(=O)C[C@@H](C)[C@]12Oc1c(Cl)c(OC)cc(OC)c1C2=O [Griseofulvin] |  | 
5 |  |  |  | 1.05 | 3.7 ± 1 | 3.9 ± 1 | 4.7 ± 1 | 4.3 ± 1.8 | 0.91 | 1.1 ± 0.6 | 1.3 ± 0.7 | 1.18 | 2.1 ± 1.1 | 3.5 ± 1.6 | 1.67 | CC(C)NCC(O)COc1cccc2ccccc12 (centres unmarked) [Propranolol] |  | 
